Source: publication PMC12621043, “Un-LOK-ing a New Approach for Conformational Selective Targeting of STK10 (LOK)” (ACS Medicinal Chemistry Letters, 2025)

Experiments:
DYRK1AA = biological target: T1, DYRK1AA (Homo sapiens, UniProt Q13627); assay: DSF Tm panel; type: binding; details: 10 μM compound
T1 construct: purchased in-house DSF kinase panel (SGC-style construct names; the trailing letter is the construct ID)

MAPK15A (MAPK15HSD) = biological target: T2, MAPK15A (MAPK15HSD) (Homo sapiens, UniProt Q8TD08); assay: DSF Tm panel; type: binding; details: 10 μM compound
T2 sequence (Q8TD08 13-304 limits assumed): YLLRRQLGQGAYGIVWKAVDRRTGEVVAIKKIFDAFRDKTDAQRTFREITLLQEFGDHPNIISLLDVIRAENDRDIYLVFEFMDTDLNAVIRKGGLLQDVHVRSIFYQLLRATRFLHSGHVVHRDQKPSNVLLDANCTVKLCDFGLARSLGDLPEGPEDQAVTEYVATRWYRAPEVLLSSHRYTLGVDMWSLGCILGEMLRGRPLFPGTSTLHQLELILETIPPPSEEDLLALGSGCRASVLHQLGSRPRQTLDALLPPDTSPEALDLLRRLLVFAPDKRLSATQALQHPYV

MST4A = biological target: T3, MST4A (Homo sapiens, UniProt Q9P289); assay: DSF Tm panel; type: binding; details: 10 μM compound
T3 construct: purchased in-house DSF kinase panel (SGC-style construct names; the trailing letter is the construct ID)
T3 sequence (Q9P289 1-300): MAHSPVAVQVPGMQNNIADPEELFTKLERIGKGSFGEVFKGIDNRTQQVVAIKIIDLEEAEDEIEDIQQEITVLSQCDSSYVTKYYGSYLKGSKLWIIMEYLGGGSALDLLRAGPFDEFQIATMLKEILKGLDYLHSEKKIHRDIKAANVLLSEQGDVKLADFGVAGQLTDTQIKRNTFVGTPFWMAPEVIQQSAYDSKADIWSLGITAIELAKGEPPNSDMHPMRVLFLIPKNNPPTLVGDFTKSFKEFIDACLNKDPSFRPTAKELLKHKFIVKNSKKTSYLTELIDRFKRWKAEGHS

MELKA = biological target: T4, MELKA (Homo sapiens, UniProt Q14680); assay: DSF Tm panel; type: binding; details: 10 μM compound
T4 construct: purchased in-house DSF kinase panel (SGC-style construct names; the trailing letter is the construct ID)
T4 sequence (Q14680 1-340): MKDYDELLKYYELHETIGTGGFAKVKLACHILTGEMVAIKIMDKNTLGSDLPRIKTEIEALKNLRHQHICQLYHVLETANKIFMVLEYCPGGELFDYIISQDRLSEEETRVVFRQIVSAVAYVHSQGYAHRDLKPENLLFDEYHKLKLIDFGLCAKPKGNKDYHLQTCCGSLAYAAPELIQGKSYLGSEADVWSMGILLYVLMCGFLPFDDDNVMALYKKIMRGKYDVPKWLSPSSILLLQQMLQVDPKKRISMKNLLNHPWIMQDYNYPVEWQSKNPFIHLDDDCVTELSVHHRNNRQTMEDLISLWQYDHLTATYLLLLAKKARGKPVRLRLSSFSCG

STK17BA = biological target: T5, STK17BA (Homo sapiens, UniProt O94768); assay: DSF Tm panel; type: binding; details: 10 μM compound
T5 construct: purchased in-house DSF kinase panel (SGC-style construct names; the trailing letter is the construct ID)
T5 sequence (O94768 25-329): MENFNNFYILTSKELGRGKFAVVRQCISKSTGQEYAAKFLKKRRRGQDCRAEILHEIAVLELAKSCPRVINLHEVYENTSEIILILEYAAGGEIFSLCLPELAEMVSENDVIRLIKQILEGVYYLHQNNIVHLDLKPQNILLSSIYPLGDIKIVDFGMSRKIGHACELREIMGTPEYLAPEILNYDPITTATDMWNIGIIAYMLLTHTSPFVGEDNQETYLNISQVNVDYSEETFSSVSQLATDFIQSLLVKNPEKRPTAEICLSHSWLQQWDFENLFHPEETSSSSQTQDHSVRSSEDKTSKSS

AKT3A = biological target: T6, AKT3A (Homo sapiens, UniProt Q9Y243); assay: DSF Tm panel; type: binding; details: 10 μM compound
T6 construct: purchased in-house DSF kinase panel (SGC-style construct names; the trailing letter is the construct ID)
T6 sequence (Q9Y243 148-479): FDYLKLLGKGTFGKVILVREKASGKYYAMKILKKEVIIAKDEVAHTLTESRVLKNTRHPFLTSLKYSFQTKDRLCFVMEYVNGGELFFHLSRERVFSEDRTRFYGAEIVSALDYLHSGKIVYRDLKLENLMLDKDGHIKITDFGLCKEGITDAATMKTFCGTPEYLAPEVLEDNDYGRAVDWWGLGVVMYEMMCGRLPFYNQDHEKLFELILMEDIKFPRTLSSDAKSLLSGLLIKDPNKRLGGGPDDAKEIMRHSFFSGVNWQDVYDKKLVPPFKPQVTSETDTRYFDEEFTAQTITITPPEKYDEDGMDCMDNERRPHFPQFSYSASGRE

RPS6KA1A = assay: DSF Tm panel; type: binding; details: 10 μM compound
CAMKK2B = biological target: T7, CAMKK2B (Homo sapiens, UniProt Q96RR4); assay: DSF Tm panel; type: binding; details: 10 μM compound
T7 construct: purchased in-house DSF kinase panel (SGC-style construct names; the trailing letter is the construct ID)
T7 sequence (Q96RR4 161-449): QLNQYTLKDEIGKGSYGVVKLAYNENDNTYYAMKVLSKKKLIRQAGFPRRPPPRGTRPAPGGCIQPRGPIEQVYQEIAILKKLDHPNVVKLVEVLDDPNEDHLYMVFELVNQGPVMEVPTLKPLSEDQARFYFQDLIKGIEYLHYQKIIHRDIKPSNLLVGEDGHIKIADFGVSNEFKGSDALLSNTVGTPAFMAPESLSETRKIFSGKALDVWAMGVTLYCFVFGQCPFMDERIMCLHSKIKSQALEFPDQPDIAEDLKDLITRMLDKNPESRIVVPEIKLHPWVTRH

SRPK1A = biological target: T8, SRPK1A (Homo sapiens, UniProt Q96SB4); assay: DSF Tm panel; type: binding; details: 10 μM compound
T8 construct: purchased in-house DSF kinase panel (SGC-style construct names; the trailing letter is the construct ID)
T8 sequence (Q96SB4 80-653): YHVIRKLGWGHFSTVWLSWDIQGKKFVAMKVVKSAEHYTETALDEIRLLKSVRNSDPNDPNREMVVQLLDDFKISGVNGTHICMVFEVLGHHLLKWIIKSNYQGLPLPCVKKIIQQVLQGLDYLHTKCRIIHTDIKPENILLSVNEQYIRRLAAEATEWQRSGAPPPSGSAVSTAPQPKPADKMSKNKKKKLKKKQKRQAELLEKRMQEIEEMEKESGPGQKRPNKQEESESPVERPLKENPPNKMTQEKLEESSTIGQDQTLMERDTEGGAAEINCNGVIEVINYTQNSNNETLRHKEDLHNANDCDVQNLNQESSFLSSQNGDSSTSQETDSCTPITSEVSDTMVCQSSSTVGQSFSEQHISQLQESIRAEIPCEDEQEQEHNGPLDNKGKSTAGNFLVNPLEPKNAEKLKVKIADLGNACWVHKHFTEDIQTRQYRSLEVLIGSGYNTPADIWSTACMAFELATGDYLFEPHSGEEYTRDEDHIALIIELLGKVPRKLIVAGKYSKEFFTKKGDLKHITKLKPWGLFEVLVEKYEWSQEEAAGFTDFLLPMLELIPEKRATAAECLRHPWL

MST3A = biological target: T9, MST3A (Homo sapiens, UniProt Q9Y6E0); assay: DSF Tm panel; type: binding; details: 10 μM compound
T9 construct: purchased in-house DSF kinase panel (SGC-style construct names; the trailing letter is the construct ID)
T9 sequence (Q9Y6E0 whole entry): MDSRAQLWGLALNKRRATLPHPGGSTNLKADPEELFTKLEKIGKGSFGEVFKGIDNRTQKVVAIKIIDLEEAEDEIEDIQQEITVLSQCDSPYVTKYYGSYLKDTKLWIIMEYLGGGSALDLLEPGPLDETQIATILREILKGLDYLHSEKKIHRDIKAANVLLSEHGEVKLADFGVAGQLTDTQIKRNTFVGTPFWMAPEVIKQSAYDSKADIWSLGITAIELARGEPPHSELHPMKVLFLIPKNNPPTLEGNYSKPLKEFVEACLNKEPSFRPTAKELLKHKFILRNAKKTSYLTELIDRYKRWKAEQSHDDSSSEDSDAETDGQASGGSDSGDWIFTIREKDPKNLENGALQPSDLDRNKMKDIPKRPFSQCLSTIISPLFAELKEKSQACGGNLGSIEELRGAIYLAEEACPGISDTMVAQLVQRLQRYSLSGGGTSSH

NEK1A = biological target: T10, NEK1A (Homo sapiens, UniProt Q96PY6); assay: DSF Tm panel; type: binding; details: 10 μM compound
T10 construct: purchased in-house DSF kinase panel (SGC-style construct names; the trailing letter is the construct ID)
T10 sequence (Q96PY6 1-328): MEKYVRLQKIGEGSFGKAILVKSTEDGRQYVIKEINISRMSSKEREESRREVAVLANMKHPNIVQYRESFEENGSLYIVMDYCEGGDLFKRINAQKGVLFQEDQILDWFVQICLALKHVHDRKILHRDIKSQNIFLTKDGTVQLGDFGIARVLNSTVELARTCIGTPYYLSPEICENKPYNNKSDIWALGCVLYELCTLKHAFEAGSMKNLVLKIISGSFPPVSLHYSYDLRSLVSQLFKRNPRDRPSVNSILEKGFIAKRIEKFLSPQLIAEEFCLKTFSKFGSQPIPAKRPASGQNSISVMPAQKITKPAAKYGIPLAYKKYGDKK

AAK1 (AAK1A) = biological target: T11, AAK1 (AAK1A) (Homo sapiens, UniProt Q2M2I8); assay: DSF Tm panel; type: binding; details: 10 μM compound
T11 construct: purchased in-house DSF kinase panel (SGC-style construct names; the trailing letter is the construct ID)
T11 sequence (Q2M2I8 27-365): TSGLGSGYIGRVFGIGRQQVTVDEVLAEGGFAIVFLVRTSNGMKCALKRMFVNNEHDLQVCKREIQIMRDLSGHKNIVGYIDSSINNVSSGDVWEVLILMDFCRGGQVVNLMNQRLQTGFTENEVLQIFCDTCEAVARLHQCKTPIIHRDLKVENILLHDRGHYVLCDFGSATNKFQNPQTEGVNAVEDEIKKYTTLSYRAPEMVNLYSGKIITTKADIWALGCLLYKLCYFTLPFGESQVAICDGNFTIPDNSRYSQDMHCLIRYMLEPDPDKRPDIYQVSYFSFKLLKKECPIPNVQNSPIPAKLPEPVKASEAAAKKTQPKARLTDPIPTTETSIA

ABL1 (ABL1A) = biological target: T12, ABL1 (ABL1A) (Homo sapiens, UniProt P00519); assay: DSF Tm panel; type: binding; details: 10 μM compound
T12 construct: purchased in-house DSF kinase panel (SGC-style construct names; the trailing letter is the construct ID)
T12 sequence (P00519 229-512): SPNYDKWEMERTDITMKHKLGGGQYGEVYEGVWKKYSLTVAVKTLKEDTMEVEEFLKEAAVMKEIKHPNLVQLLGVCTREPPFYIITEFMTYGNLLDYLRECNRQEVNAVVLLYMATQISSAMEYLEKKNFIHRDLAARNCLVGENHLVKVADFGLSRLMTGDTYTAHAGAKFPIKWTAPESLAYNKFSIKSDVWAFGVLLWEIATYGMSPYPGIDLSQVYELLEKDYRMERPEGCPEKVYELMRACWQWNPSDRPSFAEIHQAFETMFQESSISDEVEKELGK

CDC42BPAA = assay: DSF Tm panel; type: binding; details: 10 μM compound
SLK = SLK (Homo sapiens, UniProt Q9H2G2); assay: NanoBRET target engagement assay; type: cell-based; design: has a greater impact on the full-length protein than on the kinase domains; host or cells: HEK293T (ATCC CRL-3216); details: HEK293T cells
Chain of SLK (Q9H2G2 whole entry, the tested form may be a part): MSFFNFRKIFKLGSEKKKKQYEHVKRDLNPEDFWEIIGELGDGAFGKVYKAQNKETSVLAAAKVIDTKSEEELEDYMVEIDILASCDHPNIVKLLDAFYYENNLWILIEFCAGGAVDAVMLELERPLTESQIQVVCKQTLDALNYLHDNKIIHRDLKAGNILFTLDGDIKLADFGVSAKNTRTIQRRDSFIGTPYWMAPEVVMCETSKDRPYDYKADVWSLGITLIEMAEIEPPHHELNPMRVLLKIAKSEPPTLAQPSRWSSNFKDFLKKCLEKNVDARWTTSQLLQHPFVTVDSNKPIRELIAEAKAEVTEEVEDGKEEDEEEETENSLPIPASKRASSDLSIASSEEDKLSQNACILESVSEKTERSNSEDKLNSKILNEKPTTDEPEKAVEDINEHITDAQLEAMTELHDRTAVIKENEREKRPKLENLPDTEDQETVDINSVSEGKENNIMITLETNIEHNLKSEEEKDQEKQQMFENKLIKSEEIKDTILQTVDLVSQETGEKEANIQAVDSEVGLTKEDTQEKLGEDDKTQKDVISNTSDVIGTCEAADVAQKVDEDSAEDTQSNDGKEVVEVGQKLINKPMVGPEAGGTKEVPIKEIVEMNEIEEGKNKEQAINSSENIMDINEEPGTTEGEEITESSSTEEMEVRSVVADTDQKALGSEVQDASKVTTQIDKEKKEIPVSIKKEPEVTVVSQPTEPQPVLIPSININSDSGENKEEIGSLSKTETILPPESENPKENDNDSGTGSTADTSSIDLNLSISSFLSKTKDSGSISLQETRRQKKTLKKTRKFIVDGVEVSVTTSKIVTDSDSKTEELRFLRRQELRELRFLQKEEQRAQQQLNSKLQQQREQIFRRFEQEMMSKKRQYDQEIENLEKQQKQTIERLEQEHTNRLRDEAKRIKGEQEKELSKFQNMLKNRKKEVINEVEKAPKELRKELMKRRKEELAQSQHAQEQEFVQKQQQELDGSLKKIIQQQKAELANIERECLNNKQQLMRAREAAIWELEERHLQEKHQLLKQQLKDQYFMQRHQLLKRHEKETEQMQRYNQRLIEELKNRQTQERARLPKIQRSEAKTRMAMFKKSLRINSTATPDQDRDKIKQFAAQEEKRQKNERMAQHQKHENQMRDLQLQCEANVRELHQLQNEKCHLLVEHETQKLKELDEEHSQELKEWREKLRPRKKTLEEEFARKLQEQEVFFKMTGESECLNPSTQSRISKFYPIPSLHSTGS

MAP3K5A = biological target: T13, MAP3K5A (Homo sapiens, UniProt Q99683); assay: DSF Tm panel; type: binding; details: 10 μM compound
T13 construct: purchased in-house DSF kinase panel (SGC-style construct names; the trailing letter is the construct ID)
T13 sequence (Q99683 659-951): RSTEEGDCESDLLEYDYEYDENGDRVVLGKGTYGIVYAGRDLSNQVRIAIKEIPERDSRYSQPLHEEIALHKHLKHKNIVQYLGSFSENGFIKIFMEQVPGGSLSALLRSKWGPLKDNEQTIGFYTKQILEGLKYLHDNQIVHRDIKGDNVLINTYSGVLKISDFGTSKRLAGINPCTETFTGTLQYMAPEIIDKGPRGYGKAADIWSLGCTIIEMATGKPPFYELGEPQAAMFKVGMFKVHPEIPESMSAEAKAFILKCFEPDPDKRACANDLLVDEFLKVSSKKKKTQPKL

MAPK10A = biological target: T14, MAPK10A (Homo sapiens, UniProt P53779); assay: DSF Tm panel; type: binding; details: 10 μM compound
T14 construct: purchased in-house DSF kinase panel (SGC-style construct names; the trailing letter is the construct ID)
T14 sequence (P53779 39-402): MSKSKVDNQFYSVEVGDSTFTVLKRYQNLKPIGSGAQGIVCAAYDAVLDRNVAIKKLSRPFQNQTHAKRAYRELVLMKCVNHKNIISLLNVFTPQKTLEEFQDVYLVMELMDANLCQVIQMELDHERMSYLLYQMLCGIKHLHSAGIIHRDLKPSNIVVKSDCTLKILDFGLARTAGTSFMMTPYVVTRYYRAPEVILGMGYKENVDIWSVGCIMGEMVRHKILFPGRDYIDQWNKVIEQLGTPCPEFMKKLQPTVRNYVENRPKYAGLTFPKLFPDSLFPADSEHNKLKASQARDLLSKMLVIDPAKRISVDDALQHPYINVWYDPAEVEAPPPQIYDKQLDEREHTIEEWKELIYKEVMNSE

STK4 (STK4A) = biological target: T15, STK4 (STK4A) (Homo sapiens, UniProt Q13043); assay: DSF Tm panel; type: binding; details: 10 μM compound
T15 construct: purchased in-house DSF kinase panel (SGC-style construct names; the trailing letter is the construct ID)
T15 sequence (Q13043 1-311): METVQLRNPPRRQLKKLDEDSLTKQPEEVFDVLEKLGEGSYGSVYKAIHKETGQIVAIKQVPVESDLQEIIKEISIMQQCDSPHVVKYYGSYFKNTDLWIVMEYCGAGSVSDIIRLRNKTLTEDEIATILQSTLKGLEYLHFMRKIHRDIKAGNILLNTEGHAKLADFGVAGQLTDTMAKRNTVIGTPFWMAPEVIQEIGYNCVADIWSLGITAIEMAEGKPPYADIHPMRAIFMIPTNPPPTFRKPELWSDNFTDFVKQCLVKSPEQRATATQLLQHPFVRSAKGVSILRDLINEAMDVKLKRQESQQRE

UKL3A (ULK3A) = biological target: T16, UKL3A (ULK3A) (Homo sapiens, UniProt Q6PHR2); assay: DSF Tm panel; type: binding; details: 10 μM compound
T16 construct: purchased in-house DSF kinase panel (SGC-style construct names; the trailing letter is the construct ID)
T16 sequence (Q6PHR2 1-279): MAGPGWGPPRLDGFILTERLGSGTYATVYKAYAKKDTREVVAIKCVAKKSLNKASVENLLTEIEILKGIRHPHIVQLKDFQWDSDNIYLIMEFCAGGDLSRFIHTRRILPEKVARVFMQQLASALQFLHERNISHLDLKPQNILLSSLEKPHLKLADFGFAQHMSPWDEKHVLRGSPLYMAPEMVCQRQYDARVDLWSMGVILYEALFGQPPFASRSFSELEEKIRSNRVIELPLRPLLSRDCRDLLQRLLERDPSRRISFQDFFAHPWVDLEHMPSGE

| Structure (SMILES) | ΔTm at 10 µM (DYRK1AA) | ΔTm at 10 µM (MAPK15A (MAPK15HSD)) | ΔTm at 10 µM (MST4A) | ΔTm at 10 µM (MELKA) | ΔTm at 10 µM (STK17BA) | ΔTm at 10 µM (AKT3A) | ΔTm RPS6KA1A (RPS6KA1A) | ΔTm at 10 µM (CAMKK2B) | ΔTm at 10 µM (SRPK1A) | ΔTm at 10 µM (MST3A) | ΔTm at 10 µM (NEK1A) | ΔTm at 10 µM (AAK1 (AAK1A)) | ΔTm at 10 µM (ABL1 (ABL1A)) | ΔTm CDC42BPAA (CDC42BPAA) | EC50 (SLK) | ΔTm at 10 µM (MAP3K5A) | ΔTm at 10 µM (MAPK10A) | ΔTm at 10 µM (STK4 (STK4A)) | ΔTm at 10 µM (UKL3A (ULK3A)) |
| --- | --- | --- | --- | --- | --- | --- | --- | --- | --- | --- | --- | --- | --- | --- | --- | --- | --- | --- | --- |
| O=C(NCc1ccc(Cl)cc1F)Nc1ccc2cc1OCCOCCNc1ccn3ncc-2c3n1 [compound 21] | 0.7 °C | 1.8 °C | 1.1 °C | 2.4 °C | 2.7 °C | -0.3 °C | 1,1 °C | 3.5 °C | 0.4 °C | 0.6 °C | 0.7 °C | 7.1 °C | 2.3 °C | 0,4 °C | > 50 µM | 2.7 °C | 1.4 °C | 4.9 °C | 4.6 °C |
| Cc1cc(Cl)ccc1CNC(=O)Nc1ccc2cc1OCCOCCNc1ccn3ncc-2c3n1 [compound 23] | 2.6 °C | 0.8 °C | 2.1 °C | 1.1 °C | 3.3 °C | 0.9 °C | 0,8 °C | 1.9 °C | 0.2 °C | 0.3 °C | 0.9 °C | 6.5 °C | 1.7 °C | 0,6 °C | > 50 µM | 1 °C | 1 °C | 7.4 °C | 3.7 °C |
| Cc1cc(Br)ccc1CNC(=O)Nc1ccc2cc1OCCOCCNc1ccn3ncc-2c3n1 [compound 24] | 0.4 °C | 0.7 °C | 1.2 °C | 0 °C | 3.6 °C | 0.3 °C | 0,1 °C | 0.7 °C | -0.2 °C | -4.3 °C | -0.4 °C | 4 °C | -0.4 °C | 0,7 °C | > 50 µM | 1.4 °C | 0.5 °C | 2.8 °C | 3.7 °C |
| Cc1ccc(F)cc1CNC(=O)Nc1ccc2cc1OCCOCCNc1ccn3ncc-2c3n1 [compound 26] | 0.8 °C | 2.4 °C | 0.8 °C | 1.1 °C | 3.1 °C | 1.8 °C | 0,3 °C | 0.9 °C | 0 °C | -2 °C | -0.4 °C | 5 °C | 0.6 °C | 0,2 °C | > 50 µM | 0.9 °C | 0.5 °C | 3.1 °C | 3.9 °C |
| O=C(NCc1ccccc1C(F)(F)F)Nc1ccc2cc1OCCOCCNc1ccn3ncc-2c3n1 [compound 27] | 1 °C | 2.4 °C | 1.9 °C | 0.4 °C | 5.1 °C | -0.1 °C | 0,2 °C | 1.5 °C | -0.1 °C | -3.4 °C | -0.4 °C | 3.9 °C | 2.4 °C | 1,0 °C | > 50 µM | 1.4 °C | 0.7 °C | 3.8 °C | 4.5 °C |
| O=C(NCc1ccc(C(F)(F)F)cc1)Nc1ccc2cc1OCCOCCNc1ccn3ncc-2c3n1 [compound 28] | 1.6 °C | 0.5 °C | 2.1 °C | 0.9 °C | 4.8 °C | 0.4 °C | 0,2 °C | 1.8 °C | 0 °C | -4.5 °C | 0 °C | 4.7 °C | 0.9 °C | 0,9 °C | > 50 µM | 2.1 °C | 1.1 °C | 4.3 °C | 4.3 °C |
